This note sets out measurements from patent US20260325540A1 (priority 2023, published 2026).

Assay [1] addresses SARS-CoV-2 3CLpro (Severe acute respiratory syndrome coronavirus 2, UniProt P0DTD1). Briefly: FRET based protease assay, SARS-CoV-2 3CL. It is filed as biochemical, SARS-CoV-2 (strain BetaCoV/Wuhan/WIV04/2019).
The target in assay [2] is MERS-CoV 3CLpro (Middle East respiratory syndrome-related coronavirus, UniProt K9N638). Briefly: biochemical. As to conditions: MERS IC50, 75 nM MERS-CoV 3CLpro, 6 μM peptide 1 substrate, 25° C., 1.5 hrs, pH 7.5.

A value given as a limit tells only on which side of the number the result lay.

MERS-CoV 3CLpro, sequence (K9N638 3248-3553 limits assumed): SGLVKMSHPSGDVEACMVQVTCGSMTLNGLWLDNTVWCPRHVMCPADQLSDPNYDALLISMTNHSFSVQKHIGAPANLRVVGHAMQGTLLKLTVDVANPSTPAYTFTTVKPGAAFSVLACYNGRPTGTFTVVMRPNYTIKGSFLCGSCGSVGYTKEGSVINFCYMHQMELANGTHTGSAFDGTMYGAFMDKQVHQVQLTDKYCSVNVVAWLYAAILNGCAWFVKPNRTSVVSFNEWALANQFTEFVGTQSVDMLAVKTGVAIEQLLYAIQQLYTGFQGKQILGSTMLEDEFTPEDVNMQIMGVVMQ

For the molecule `CC1(C)[C@@H]2[C@H]3C(=O)N[C@H](C#N)C[C@@H]4C(=O)NC[C@@H]4CCCC[C@H](NC(=O)C4CCOCC4)C(=O)N3C[C@@H]21` [Example 85], the IC50 in assay [1] and in assay [2] was less than 100 nM each time.
On to `CC(C)(C)C(=O)N[C@H]1CC/C=C/[C@H]2CNC(=O)[C@H]2C[C@@H](C#N)NC(=O)[C@@H]2[C@H]3CCC[C@H]3CN2C1=O` [Example 86], for which the IC50 in assay [1] is less than 100 nM; in assay [2], 100 to 1000 nM.
The like results for `CC1(C)[C@@H]2[C@H]3C(=O)N[C@H](C#N)C[C@@H]4C(=O)NC[C@@H]4CCCC[C@H](NC(=O)C(F)(F)F)C(=O)N3C[C@@H]21` [Example 87] were, in that order, less than 100 nM and less than 100 nM.
In the case of `N#C[C@@H]1C[C@@H]2C(=O)NC[C@@H]2CCCC[C@H](NC(=O)C(F)(F)F)C(=O)N2C[C@@H]3CCC[C@@H]3[C@H]2C(=O)N1` [Example 88], the results for the IC50 in assay [1] and in assay [2] were less than 100 nM and 100 to 1000 nM, respectively.
The like results for `CC1(C)[C@@H]2[C@H]3C(=O)N[C@H](C#N)C[C@@H]4C(=O)NC[C@@H]4CCCC[C@H](NC(=O)CC4CC(F)(F)C4)C(=O)N3C[C@@H]21` [Example 89] were, in that order, less than 100 nM and 100 to 1000 nM.
In the case of `CC1(C)[C@@H]2[C@H]3C(=O)N[C@H](C#N)C[C@@H]4C(=O)NC[C@@H]4CCCC[C@H](NC(=O)CC4CCCC4)C(=O)N3C[C@@H]21` [Example 90], the figures for the IC50 in assay [1] and in assay [2] were less than 100 nM and 100 to 1000 nM, respectively.
The like results for `CC1(C)[C@@H]2[C@H]3C(=O)N[C@H](C#N)C[C@@H]4C(=O)NC[C@@H]4CCCC[C@H](NC(=O)c4ccncn4)C(=O)N3C[C@@H]21` [Example 91] were, in that order, less than 100 nM and less than 100 nM.
On the same counts, the results for `CC(C)(C)OC(=O)N[C@H]1CC/C=C/[C@H]2CNC(=O)[C@H]2C[C@@H](C#N)NC(=O)[C@@H]2[C@@H]3[C@H](CN2C1=O)C3(C)C` [Example 92] are less than 100 nM and less than 100 nM.
The like results for `N#C[C@@H]1C[C@@H]2C(=O)NCC[C@@H]2CCCC[C@H](NC(=O)OC2CCCC2)C(=O)N2C[C@@H]3CCC[C@@H]3[C@H]2C(=O)N1` [Example 93] were, in that order, less than 100 nM and 100 to 1000 nM.
Take `N#C[C@@H]1C[C@@H]2C(=O)NC[C@@H]2CCCC[C@H](NC(=O)OC2CCCC2)C(=O)N2C[C@@H]3CCC[C@@H]3[C@H]2C(=O)N1` [Example 94]: the IC50 in assay [1] and in assay [2] was less than 100 nM throughout.
Consider `CC(C)(C)CC(=O)N[C@H]1CCCC[C@H]2CCNC(=O)[C@H]2C[C@@H](C#N)NC(=O)[C@@H]2[C@H]3CCC[C@H]3CN2C1=O` [Example 95], for which the figures for the concentration for half-maximal inhibition (IC50) in assay [1] and in assay [2] were less than 100 nM and 100 to 1000 nM, respectively.
The like results for `CC(C)(C)OC(=O)N[C@H]1CC/C=C\[C@H]2CCNC(=O)[C@H]2CC(C#N)NC(=O)[C@@H]2[C@H]3CCC[C@H]3CN2C1=O` (stereo partly drawn) [Example 97] were, in that order, less than 100 nM and 100 to 1000 nM.
Consider `CC(C)(C)OC(=O)N[C@H]1CCCC[C@H]2CCNC(=O)C2C[C@@H](C#N)NC(=O)[C@@H]2[C@H]3CCC[C@H]3CN2C1=O` (stereo partly drawn) [Example 98], for which the IC50 in assay [1] and in assay [2] was 100 to 1000 nM each time.
For `CC(C)(C)OC(=O)N[C@H]1CC/C=C/[C@H]2CCNC(=O)[C@H]2C[C@@H](C#N)NC(=O)[C@@H]2[C@H]3CCC[C@H]3CN2C1=O` [Example 99], the figures for the IC50 in assay [1] and in assay [2] were 100 to 1000 nM and 1000 to 20000 nM, respectively.
Regarding `CC(C)(C)OC(=O)N[C@H]1CCC[C@H]2CCNC(=O)[C@H]2C[C@@H](C#N)NC(=O)[C@@H]2[C@H]3CCC[C@H]3CN2C1=O` [Example 100], the IC50 in assay [1] and in assay [2] was 1000 to 20000 nM throughout.
On to `N#C[C@@H]1C[C@@H]2C(=O)NC[C@@H]2/C=C/CC[C@H](NC(=O)C(F)(F)F)C(=O)N2C[C@@H]3CCC[C@@H]3[C@H]2C(=O)N1` [Example 101], for which the IC50 is less than 100 nM in assay [1] and 100 to 1000 nM in assay [2].
The like results for `CC(C)(C)OC(=O)N[C@H]1COCCC[C@H]2CNC(=O)[C@H]2C[C@@H](C#N)NC(=O)[C@@H]2[C@@H]3[C@H](CN2C1=O)C3(C)C` [Example 102] were, in that order, less than 100 nM and 100 to 1000 nM.
On the same counts, the results for `CC1(C)[C@@H]2[C@H]3C(=O)N[C@H](C#N)C[C@@H]4C(=O)NC[C@@H]4CCCC[C@H](NC(=O)c4ccc(F)cc4F)C(=O)N3C[C@@H]21` [Example 103] are less than 100 nM and less than 100 nM.
For `CC1(C)[C@@H]2[C@H]3C(=O)N[C@H](C#N)C[C@@H]4C(=O)NCC[C@@H]4CCCC[C@H](NC(=O)C(F)(F)F)C(=O)N3C[C@@H]21` [Example 104], the IC50 in assay [1] and in assay [2] was less than 100 nM throughout.
Regarding `CC(C)(C)OC(=O)N[C@H]1CCCC[C@H]2CNC(=O)[C@H]2C[C@@H](C#N)NC(=O)[C@@H]2CC3(CC3)CN2C1=O` [Example 105], the IC50 in assay [1] and in assay [2] was 100 to 1000 nM throughout.
Regarding `CC(C)(C)COC(=O)N[C@H]1CCCC[C@H]2CNC(=O)[C@H]2C[C@@H](C#N)NC(=O)[C@@H]2[C@@H]3[C@H](CN2C1=O)C3(C)C` [Example 106], the concentration for half-maximal inhibition (IC50) in assay [1] was less than 100 nM; in assay [2], 100 to 1000 nM.
As for `CC1(C)[C@@H]2[C@H]3C(=O)N[C@H](C#N)C[C@@H]4C(=O)NC[C@@H]4CCCC[C@H](NC(=O)c4cncnc4)C(=O)N3C[C@@H]21` [Example 107], the IC50 in assay [1] and in assay [2] was less than 100 nM throughout.
In the case of `CC1(C)[C@@H]2[C@H]3C(=O)N[C@H](C#N)C[C@@H]4C(=O)NC[C@@H]4/C=C/CC[C@H](NC(=O)C(F)(F)F)C(=O)N3C[C@@H]21` [Example 108], the IC50 in assay [1] and in assay [2] was less than 100 nM throughout.
Consider `Cc1cc(C(=O)N[C@H]2CCCC[C@H]3CNC(=O)[C@H]3C[C@@H](C#N)NC(=O)[C@@H]3[C@@H]4[C@H](CN3C2=O)C4(C)C)on1` [Example 109], for which the IC50 in assay [1] and in assay [2] was less than 100 nM each time.
Regarding `CC(C)(C)OC(=O)N[C@H]1CCCC[C@H]2CCNC(=O)[C@H]2C[C@@H](C#N)NC(=O)[C@@H]2[C@@H]3[C@H](CN2C1=O)C3(C)C` [Example 110], the figures for the IC50 in assay [1] and in assay [2] were less than 100 nM and 100 to 1000 nM, respectively.
On the same counts, the results for `CC(C)(C)OC(=O)N[C@H]1CCCC[C@H]2CNC(=O)[C@H]2C[C@@H](C#N)NC(=O)[C@@H]2[C@H]3CC[C@H](CC3)N2C1=O` [Example 111] are 100 to 1000 nM and 100 to 1000 nM.
Take `CC(C)(C)OC(=O)N[C@H]1CC/C=C/[C@H]2CNC(=O)[C@H]2C[C@@H](C#N)NC(=O)[C@@H]2[C@H]3CCC[C@H]3CN2C1=O` [Example 112]: the IC50 was less than 100 nM in assay [1] and 100 to 1000 nM in assay [2].
Turning to `Cc1nc(C(=O)N[C@H]2CCCC[C@H]3CNC(=O)[C@H]3C[C@@H](C#N)NC(=O)[C@@H]3[C@@H]4[C@H](CN3C2=O)C4(C)C)cs1` [Example 113], the results for the IC50 in assay [1] and in assay [2] were 100 to 1000 nM and less than 100 nM, respectively.
The like results for `CC(C)(C)OC(=O)N[C@H]1CC/C=C\[C@H]2CCNC(=O)[C@H]2C[C@@H](C#N)NC(=O)[C@@H]2[C@@H]3[C@H](CN2C1=O)C3(C)C` [Example 114] were, in that order, less than 100 nM and 100 to 1000 nM.
For the molecule `Cc1nc(C(=O)N[C@H]2CCCC[C@H]3CNC(=O)[C@H]3C[C@@H](C#N)NC(=O)[C@@H]3[C@@H]4[C@H](CN3C2=O)C4(C)C)co1` [Example 115], the 50% inhibitory concentration (IC50) in assay [1] and in assay [2] was less than 100 nM throughout.

In general, IC50 refers to the midpoint of a concentration-inhibition curve. A lower IC50 goes with greater potency in that assay.
